Data set [1] deals with histamine and carbachol-stimulated gastric acid secretion. The data set is described as follows: Inhibition of gastric acid secretion of the conscious male rat, oral administration. The data set is classed as in vivo, rat (Sprague-Dawley). The conditions noted are these: sodium salt, read-out: % inhibition of gastric acid secretion between 3-5 hours after administration; for inhibition in vivo at 40 µmol/kg: 40 μmole/kg; for inhibition in vivo at 20 µmol/kg: 20 μmole/kg; for inhibition in vivo at 10 µmol/kg: 10 μmole/kg. As for the experimental part:
Male rats (the Sprague-Dawley strain) were used in this experiment. OMEPRAZOLE sodium salt or LANSOPRAZOLE sodium salt (20 mg) was suspended in 10 ml of 0.1 N NaHCO3. 40 mg of each of the sodium salts of Compound 1, Compound 2, Compound 3, Compound 4, Compound 6 Compound 9, Compound 12, mixture (1:1) of Compound 16 and 17, mixture (1:1) of Compound 18 and 19, mixture (1:1) of Compound 20 and 21, mixture (1:1) of Compound 22 and 23, Compound 27, mixture (1:1) of Compound 34 and 35, and Compound 36 were dissolved in 10 ml of 50 mM sodium phosphate buffer, pH 7.4. The doses administered to the rats were as follows (μmole per kg body weight of the rat): OMEPRAZOLE (10 μmole/kg), LANSOPRAZOLE (10 μmole/kg), Compound 120 μmole/kg, Compound 2 40 μmole/kg, Compound 320 μmole/kg, Compound 420 μmole/kg, Compound 620 μmole/kg, Compound 940 μmole/kg, Compound 1240 μmole/kg, mixture (1:1) of Compound 16 and 17 40 μmole/kg, mixture (1:1) of Compound 18 and 19 40 μmole/kg, mixture (1:1) of Compound 20 and 21 40 μmole/kg, mixture (1:1) of Compound 22 and 23 40 μmole/kg, Compound 27 40 μmole/kg, mixture (1:1) of Compound 34 and 35 40 μmole/kg, and Compound 3640 μmole/kg. These drug solutions were orally administered.
(§1) 3 hours after administration the abdomen of the rat was incised and the pylorus was ligated under light ether anethesia. Histamine (30 mg/kg) and carbachol (30 μg/kg) were subcutaneously injected for acid stimulation. Immediately the abdomen was closed. Two hours later, the esophagus was ligated and the stomach was removed. The gastric juice was collected and acid output was quantified by titration using 0.1 N NaOH solution. As a control experiment, 1 ml of 50 mM phosphate buffer (pH 7.4) solution was orally administrated without any prodrug or proton pump inhibitory drug. Acid output was quantified by same method as described above, showing maximum histamine and carbachol-stimulated gastric acid secretion. Percentage inhibition was calculated from the fractional responses elicited by the test compound and a control experiment.

A short description of data set [2]: Stability in plasma at 37° C. (gradient HPLC-UV), rat plasma. The data set is classed as in vitro ADME. As for the experimental part: (§2) Exemplary test compounds (prodrugs) of the invention were incubated in plasma at 37° C., and the concentration of the compounds and also of the corresponding proton pump inhibitor compounds (PPI) were determined by a gradient HPLC-UV method. Although the half-lives of test compounds in plasma varies depending on their structure, nevertheless it is apparent that in plasma the compounds of the invention are converted into the corresponding proton pump inhibitor at a rate faster than the hydrolysis rate of the compound at neutral or near neutral pH.

Data set [3] is described as follows: Stability in plasma at 37° C. (gradient HPLC-UV), human plasma. The data set is classed as in vitro ADME. As for the experimental part: as §2
Data set [4] is described as follows: Stability in Britton Robinson buffers (hydrolysis of prodrug to PPI, HPLC). The note with it: Britton Robinson buffer, pH 7.
Protocol: The stability of Compounds 1, 2, 3, 4 and 5 of the invention in aqueous solution (0.1 mg/mL) was investigated in Britton Robinson buffers of pH 3, pH 7, and pH 9, respectively. A solution of 0.1 mg/mL concentration of each compound in each buffer was prepared and the solutions were stored at 37° C. for 1 h and then the concentrations of test compounds were determined by HPLC.
Data set [5] in a line: Solubility in phosphate buffered saline buffer of pH 7.4 at 37° C. The data set is classed as physicochemical. The note with it: aqueous buffer, sodium salts, phosphate buffered saline buffer pH 7.4, read-out: Solubility at 37° C. Conc. The procedure: The solubility of the sodium salts of certain exemplary compounds of the present invention in a phosphate buffered saline buffer of pH 7.4 (50 mM sodium phosphate, 10 mM KCl, 0.1 M NaCl) and also in a more acidic Britton Robinson buffer of pH 3 (40 mM acetic acid, 40 mM phosphoric acid, 40 mM boric acid, 36 mM NaOH, and 19.6 mg/ml KCl) was also evaluated. […] The tested compounds were much less soluble little in the Britton Robinson buffer of pH 3, but still more soluble than the prior art compounds (a) through (f). This is understandable in view of the fact that in the buffer of pH 7.4 the compounds of the invention form a sodium salt, whereas in the buffer of pH 3 the compounds are less soluble free carboxylic acids. Thus, a solution of a sodium or other pharmaceutically acceptable salt of the compounds of the invention, or stated in an other way the compounds of the invention at pH 7 or above are highly soluble and therefore suitable for administration by intravenous injection.

A further data set has as its system gastric acid secretion. In words: Inhibition of gastric acid secretion in rat, intravenous administration. The data set is classed as in vivo. The procedure:
as §1
Inhibition of gastric acid secretion after intravenous administration of compounds of the invention was also examined. Lansoprazole sodium salt (20 mg) was dissolved in 40% hydroxypropyl-beta-cyclodextrin. The compounds of the invention used in this experiment were dissolved in phosphate buffered saline solution of pH 7.4. Each compound was injected intravenously at a dose of 5 μmole/kg or 10 μmole/kg (μmole per kg body weight of rat) as indicated in Table 4 below. Between 2 to 4 hours after injection gastric juice was collected, and the percentage of inhibition was determined as described above.

Experimental findings from patent publication US6897227B2, “Prodrugs of proton pump inhibitors” (Winston Pharmaceuticals, Inc., priority 2002, dated 2005) are described below.

What is called half-life is how long it takes for the measured level to halve. Turning to `Cc1ccc(C(=O)[O-])cc1S(=O)(=O)n1c([S+]([O-])Cc2nccc(OCC(F)(F)F)c2C)nc2ccccc21.[Na+]` (centres unmarked) [Compound 27, 3-{2-[3-Methyl-4-(2,2,2-trifluoro-ethoxy)-pyridin-2-yl-methanesulfinyl]-benzimidazole-1-sulfonyl}-4-methylbenzoic acid sodium salt], in data set [1], the inhibition in vivo at 40 µmol/kg was 96.7 ± 1.3%. Moreover, the half-life in data set [2] worked out at 14 min.

In general, solubility refers to the dissolved amount per volume that the medium holds. In the case of `COc1ccc(S(=O)(=O)n2c([S+]([O-])Cc3nccc(OCC(F)(F)F)c3C)nc3ccccc32)cc1C(=O)[O-].[Na+]` (centres unmarked) [Compound 3, 2-methoxy-5-{2-[3-methyl-4-(2,2,2-trifluoro-ethoxy)-pyridin-2-ylmethanesulfinyl]benzimidazole-1-sulfonyl}-benzoic acid sodium salt], the half-life was 10 min in data set [3] and 81 min in data set [2]. The half-life at 0.1 mg/mL in data set [4] is greater than 50 h. In data set [1], the inhibition in vivo at 20 µmol/kg was 84.9 ± 13.6%. Besides, the solubility in data set [5] was greater than 50 mg/mL.

Regarding `Cc1cc(OCC(=O)[O-])cc(C)c1S(=O)(=O)n1c([S+]([O-])Cc2nccc(OCC(F)(F)F)c2C)nc2ccccc21.[Na+]` (centres unmarked) [Compound 5], the half-life at 0.1 mg/mL in data set [4] was greater than 50 h. Moreover, the solubility in data set [5] is greater than 30 mg/mL. This compound also displayed a half-life in data set [2] of 31 min.

As to `CCC(Oc1ccc(S(=O)(=O)n2c([S+]([O-])Cc3nccc(OCC(F)(F)F)c3C)nc3ccccc32)cc1)C(=O)[O-].[Na+]` (centres unmarked) [Compound 4 Na salt, 2-(4-{2-[3-methyl-4-(2,2,2-trifluoro-ethoxy)-pyridin-2-ylmethanesulfinyl]-benzimidazole-1-sulfonyl}phenoxy)butyric acid sodium salt], the half-life in data set [3] turned out to be 60 min; in data set [2], 98 min.

In the case of `COc1ccc2nc([S+]([O-])Cc3ncc(C)c(OC)c3C)n(S(=O)(=O)c3ccc(OCC(=O)[O-])cc3)c2c1.[Na+]` (centres unmarked) [Compound 10, {4-[6-methoxy-2-(4-methoxy-3,5-dimethyl-pyridin-2-ylmethanesulfinyl)-benzimidazole-1-sulfonyl]-phenoxy}-acetic acid sodium salt], the “% inhibition of gastric acid secretion between 2-4 hours after i.v. administration” value (from here on “% inhibition”) in the data set on gastric acid secretion (5 μmole/kg) amounted to 18.3 ± 11.9%.

Turning to `Cc1c(OCC(F)(F)F)ccnc1C[S+]([O-])c1nc2ccccc2n1S(=O)(=O)c1ccc(OCC(=O)[O-])c(OCC(=O)[O-])c1.[Na+].[Na+]` (centres unmarked) [Compound 12, (2-Carboxymethoxy-4-{2-[3-methyl-4-(2,2,2-trifluoro-ethoxy)-pyridin-2-ylmethanesulfinyl]-benzimidazole-1-sulfonyl}-phenoxy)-acetic acid di-sodium salt], the half-life in data set [3] came out at 51 min; in data set [2], 78 min. Further, in data set [1], the inhibition in vivo at 40 µmol/kg came out at 82.8 ± 9.6%. Besides, the entries for the “% inhibition” value in the data set with gastric acid secretion (5 μmole/kg) and in the data set on gastric acid secretion (10 μmole/kg) were 89.2 ± 6.8% and 92.6 ± 2.9%, respectively. The solubility in data set [5] was greater than 50 mg/mL.

As for `Cc1c(OCC(F)(F)F)ccnc1C[S+]([O-])c1nc2ccccc2n1S(=O)(=O)c1ccc(OCC(=O)NCCCC(=O)[O-])cc1C(C)C.[Na+]` (centres unmarked) [Compound 11], the half-life in data set [3] came to 14 min; in data set [2], 53 min.

Take `COc1ccc(S(=O)(=O)n2c([S+]([O-])Cc3nccc(OCC(F)(F)F)c3C)nc3ccccc32)cc1CCC(=O)[O-].[Na+]` (centres unmarked) [Compound 36, 3-[2-Methoxy-5-{2-(3-methyl-4-(2,2,2-trifluoroethoxy)pyridin-2-yl-methanesulfinyl)-benzimidazole-1-sulfonyl}phenyl]propionic acid sodium salt]: in data set [1], the inhibition in vivo at 40 µmol/kg was 89.8 ± 6.8%. The compound also yielded a half-life in data set [2] of 19 min.

As to `COCCCOc1ccnc(C[S+]([O-])c2nc3ccccc3n2S(=O)(=O)c2ccc(OCC(=O)[O-])cc2)c1C.[Na+]` (centres unmarked) [Compound 8, (4-{2-[4-(3-Methoxy-propoxy)-3-methyl-pyridin-2-ylmethanesulfinyl]-benzimidazole-1-sulfonyl}-phenoxy)-acetic acid sodium salt], in data set [5], the solubility is greater than 30 mg/mL.

For `Cc1cc(OCC(=O)[O-])cc(C(C)C)c1S(=O)(=O)n1c([S+]([O-])Cc2nccc(OCC(F)(F)F)c2C)nc2ccccc21.[Na+]` (centres unmarked) [Compound 39, 4-[2-{3-Methyl-4-(2,2,2-trifluoroethoxy)pyridin-2-yl-methanesulfinyl}-benzimidazole-1-sulfonyl]-3-isopropyl-5-methylphenoxyacetic acid sodium salt], the half-life in data set [2] was 317 min.

Regarding `Cc1c(OCC(F)(F)F)ccnc1C[S+]([O-])c1nc2ccccc2n1S(=O)(=O)c1cccc(C(=O)O)c1` (centres unmarked) [Compound 1, 3-{2-[3-Methyl-4-(2,2,2-trifluoro-ethoxy)-pyridin-2-ylmethanesulfinyl]-benzimidazole-1-sulfonyl}benzoic acid], the half-life in data set [3] is 12 min; in data set [2] it was 14 min. Further, the half-life at 0.1 mg/mL in data set [4] was greater than 50 h. Moreover, the inhibition in vivo at 20 µmol/kg in data set [1] stood at 81.9 ± 7.1%. Also, the “% inhibition” value is 83.7 ± 10.1% in the data set on gastric acid secretion (5 μmole/kg) and 90.6 ± 2.1% in the data set with gastric acid secretion (10 μmole/kg). Also, in data set [5], the solubility is greater than 30 mg/mL.

In the case of `Cc1c(OCC(F)(F)F)ccnc1C[S+]([O-])c1nc2ccccc2[nH]1` (centres unmarked) [LANSOPRAZOLE, 2-[3-methyl-4-(2,2,2-trifluoroethoxy)pyridin-2-yl-methanesulfinyl]-1H-benzimidazole, reference compound], the inhibition in vivo at 10 µmol/kg in data set [1] is 67.6 ± 14.7%. Moreover, the “% inhibition” value with gastric acid secretion (5 μmole/kg) stood at 91.5 ± 5.0%.

Regarding `Cc1cc(OCC(=O)NCCCCCC(=O)[O-])cc(C)c1S(=O)(=O)n1c([S+]([O-])Cc2nccc(OCC(F)(F)F)c2C)nc2ccccc21.[Na+]` (centres unmarked) [Compound 6, 6-[2-(3,5-Dimethyl-4-{2-[3-methyl-4-(2,2,2-trifluoro-ethoxy)-pyridin-2-ylmethanesulfinyl]-benzimidazole-1-sulfonyl}-phenoxy)acetylamino]hexanoic acid sodium salt], the half-life in data set [3] came to 60 min; in data set [2], 52 min. For the same compound, in data set [1], the inhibition in vivo at 20 µmol/kg is 53.5 ± 18.3%.

Regarding `COc1ccc2[nH]c([S+]([O-])Cc3ncc(C)c(OC)c3C)nc2c1` (centres unmarked) [OMEPRAZOLE, 5-methoxy-2-(4-methoxy-3,5-dimethyl-pyridin-2-yl-methanesulfinyl)-1H-benzimidazole, reference compound], the inhibition in vivo at 10 µmol/kg in data set [1] was determined as 54.6 ± 10.4%.
